Reference: PubChem BioAssay AID1963846 (Molecular Pharmacology Branch, DTP, NCI, 2024)
pIC50: −log10 of the molar value. Several values for one entry are separate records, joined by “and”; a condition that tells them apart may be missing. Equal values may be shown once.

System: 454973-116-R2-J3-PDC complex spheroid viability
Experiment: Anticancer human tumor 454973-116-R2-J3-PDC patient-derived pancreatic carcinoma cell line growth inhibition [POLQ]
Conditions: for viability, T/C: stronger effect = lower value
Experimental: Multicellular complex tumor spheroid response to Polymerase (POL) inhibitors (novobiocin, ART-558, RP6685) in combination with a variety of drugs and investigational agents in selected tumor cell lines
The POL inhibitors (novobiocin, ART-558, and RP6685) were evaluated both individually and in combination with standard of care and investigational anticancer small molecules within a complex spheroid model of solid tumors. . Complex spheroids include a stromal component modeled by human endothelial cells (HUVEC) and fibroblasts modeled by human mesenchymal stem cells (MSCs). The concentration ranges selected for each drug and investigational agent were based upon clinically achievable concentrations if the clinical Cmax of the agent was known.
Compounds. The drugs and investigational agents: novobiocin (NSC847541), ART-558 (NSC835418), RP-6685 (NSC848927), peposertib (NSC802822), ceralasertib (NSC780249), elimusertib (NSC800525), camonsertib (NSC841442), AZD-1390 (NSC803789), olaparib (NSC753686), talazoparib (NSC767125), rucaparib (NSC756644), sotorasib (NSC818433), MRTX-1133 (NSC836407), SN-38 (NSC673596), topotecan (NSC609699), epotoside (NSC141540), doxorubicin (NSC123127), gemcitabine (NSC613327), 5-fluorouracil (NSC19893), paclitaxel (NSC125973), vemurafenib (NSC761431), MSA-2 (NSC828583), SN-011 (NSC837082), adavosertib (NSC754352), prexasertib (NSC758257), carboplatin (NSC241240) and oxaliplatin (NSC266046), were obtained from the National Cancer Institute (NCI) Developmental Therapeutics Program Chemical Repository (21). The FDA-approved anticancer drug set is available from the Developmental Therapeutics Program at https://dtp.cancer.gov/organization/dscb/obtaining/. […] The stock solutions were prepared in dimethyl sulfoxide (DMSO, Sigma-Aldrich, St. Louis, MO, cat. D2650), except for the platinum compounds which were prepared in saline (Quality Biological, Gaithersburg, MD, cat. 114-055-101), at 800-fold the tested concentration and stored at -70 degrees C prior to their use. All drugs and investigational agents were tested over a range starting from a high concentration at or near the clinical Cmax and decreasing in half-log increments. If the clinical Cmax for an agent had not been determined, the highest concentration tested was 10 microM, except for SN-38, which was tested at a high concentration of 1 microM.
Cell Culture. All cells were maintained in an incubator at 37 degrees C and 5% CO2 with 95% humidity. The PDC lines were cultured according to standard operating procedures established by the NCI PDMR (https://pdmr.cancer.gov). Table 3 of the manuscript, lists the cell lines along with the number of the three cell types plated to form the mct-spheroids and media for tumor cell growth. After thawing, all PDC lines, except 997537-175-T-J1-PDC and 415267-285-R-J2-PDC, were cultured in Matrigel-coated flasks prepared with a working solution of 1X Ham's F-12 nutrient mix, without supplementation (Thermo Fisher Scientific, cat. 11765054), 100 U/mL penicillin-streptomycin (Thermo Fisher Scientific, cat. 15140122), and 2.5% Matrigel (Corning Inc., Corning, NY, cat. 354248) for the first three passages. The two PDC lines 997537-175-T-J1-PDC and 415267-285-R-J2-PDC were cultured on uncoated flasks. The 857933-349-R-J2-PDC line was cultured in 6C/Colon 1B media containing advanced DMEM/F-12 (Thermo Fisher Scientific, cat. 12634028), 10 mM HEPES (Thermo Fisher Scientific, cat. 15630080), 1X GlutaMAX supplement (Thermo Fisher Scientific, cat. 35050061), 0.1 mg/mL primocin (InvivoGen, San Diego, CA, cat. ant-pm-2), 10% defined fetal bovine serum, heat inactivated (HyClone Laboratories Inc., Logan, UT, cat. SH30070.03HI), 50% L-WRN conditioned media (ATCC, cat. CRL-3276), 1.25 mM N-Acetyl-L-cysteine (Sigma-Aldrich, cat. A9165), 10 mM nicotinamide (Sigma-Aldrich, cat. N0636), 1X B-27 supplement (Thermo Fisher Scientific, cat. 17504044), 1X N-2 supplement (Thermo Fisher Scientific, cat. […]

[1] = curve of first compound, second compound 0.0316 µM
[2] = curve of first compound, second compound 0.1 µM
[3] = curve of first compound, second compound 0.316 µM
[4] = curve of first compound, second compound 1 µM
[5] = curve of first compound, second compound 3.16 µM
[6] = curve of first compound, second compound 10 µM
[7] = second compound 0.0316 µM, first compound 0.0316 µM
[8] = second compound 0.0316 µM, first compound 0.1 µM
[9] = second compound 0.0316 µM, first compound 0.316 µM
[10] = second compound 0.0316 µM, first compound 1 µM
[11] = second compound 0.0316 µM, first compound 3.16 µM
[12] = second compound 0.0316 µM, first compound 10 µM
[13] = second compound 0.1 µM, first compound 0.0316 µM
[14] = second compound 0.1 µM, first compound 0.1 µM
[15] = second compound 0.1 µM, first compound 0.316 µM
[16] = second compound 0.1 µM, first compound 1 µM
[17] = second compound 0.1 µM, first compound 3.16 µM
[18] = second compound 0.1 µM, first compound 10 µM
[19] = second compound 0.316 µM, first compound 0.0316 µM
[20] = second compound 0.316 µM, first compound 0.1 µM
[21] = second compound 0.316 µM, first compound 0.316 µM
[22] = second compound 0.316 µM, first compound 1 µM
[23] = second compound 0.316 µM, first compound 3.16 µM
[24] = second compound 0.316 µM, first compound 10 µM
[25] = second compound 1 µM, first compound 0.0316 µM
[26] = second compound 1 µM, first compound 0.1 µM
[27] = second compound 1 µM, first compound 0.316 µM
[28] = second compound 1 µM, first compound 1 µM
[29] = second compound 1 µM, first compound 3.16 µM
[30] = second compound 1 µM, first compound 10 µM
[31] = second compound 3.16 µM, first compound 0.0316 µM
[32] = second compound 3.16 µM, first compound 0.1 µM
[33] = second compound 3.16 µM, first compound 0.316 µM
[34] = second compound 3.16 µM, first compound 1 µM
[35] = second compound 3.16 µM, first compound 3.16 µM
[36] = second compound 3.16 µM, first compound 10 µM
[37] = second compound 10 µM, first compound 0.0316 µM
[38] = second compound 10 µM, first compound 0.1 µM
[39] = second compound 10 µM, first compound 0.316 µM
[40] = second compound 10 µM, first compound 1 µM
[41] = second compound 10 µM, first compound 3.16 µM
[42] = second compound 10 µM, first compound 10 µM
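Further: spheroids exposed to drugs for seven days before measurement.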
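Wherever viability, T/C is given: percent viability relative to DMSO vehicle control wells taken as 100%.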

With CNCc1ccc(-c2[nH]c3cc(F)cc4c3c2CCNC4=O)cc1 the viability, T/C (compound 0.0316 µM) was 103% and 105% and 99%, the viability, T/C (compound 0.1 µM) was 91.9% and 102% and 93% and the viability, T/C (compound 0.316 µM) was 97% and 98.4% and 112%. For the same molecule, the viability, T/C (compound 1 µM) was 100% and 106% and 97.7%, the viability, T/C (compound 3.16 µM) was 111% and 101% and 102% and the viability, T/C (compound 10 µM) was 81.6% and 96.5% and 83.7%. It also gave a pIC50 (curve of compound) of under 5.00.

Molecule CC1COCCN1c1cc(C2(S(C)(=N)=O)CC2)nc(-c2ccnc3[nH]ccc23)n1 (stereo unspecified) + COC1C(OC(N)=O)C(O)C(Oc2ccc3c(O)c(NC(=O)c4ccc(O)c(CC=C(C)C)c4)c(=O)oc3c2C)OC1(C)C has a pIC50 [1] of 5.22, a pIC50 [2] of 5.22 and a pIC50 [3] of 5.14. The pIC50 [4] was 5.21, the pIC50 [5] was 5.21 and the pIC50 [6] was 5.22. The viability, T/C [7] was 102%, the viability, T/C [8] was 104% and the viability, T/C [9] was 105%. For the same molecule, the viability, T/C [10] was 102%, the viability, T/C [11] was 77.1% and the viability, T/C [12] was 28.1%. For the same molecule, the viability, T/C [13] was 107%, the viability, T/C [14] was 114% and the viability, T/C [15] was 101%. The viability, T/C [16] was 101%, the viability, T/C [17] was 71.8% and the viability, T/C [18] was 32.8%. For the same molecule, the viability, T/C [19] was 103%, the viability, T/C [20] was 110% and the viability, T/C [21] was 116%. It also gave a viability, T/C [22] of 105%, a viability, T/C [23] of 81.1% and a viability, T/C [24] of 38.3%. It also gave a viability, T/C [25] of 127%, a viability, T/C [26] of 104% and a viability, T/C [27] of 109%. The viability, T/C [28] was 109%, the viability, T/C [29] was 68.2% and the viability, T/C [30] was 37%. For the same molecule, the viability, T/C [31] was 118%, the viability, T/C [32] was 99.9% and the viability, T/C [33] was 101%. The viability, T/C [34] was 97.2%, the viability, T/C [35] was 75.8% and the viability, T/C [36] was 30.9%. For the same molecule, the viability, T/C [37] was 114%, the viability, T/C [38] was 97% and the viability, T/C [39] was 104%. It also gave a viability, T/C [40] of 93.9%, a viability, T/C [41] of 74% and a viability, T/C [42] of 31.2%.

For C=CC(=O)N1CCN(c2nc(=O)n(-c3c(C)ccnc3C(C)C)c3nc(-c4c(O)cccc4F)c(F)cc23)C(C)C1 (stereo unspecified) + Cc1cccc(N(C)C(=O)C2C(O)CCN2c2nc(C)cc(C(F)(F)F)c2C#N)c1, the pIC50 [1] was under 5.00, the pIC50 [2] was under 5.00 and the pIC50 [3] was under 5.00. For the same molecule, the pIC50 [4] was under 5.00, the pIC50 [5] was under 5.00 and the pIC50 [6] was under 5.00. The viability, T/C [7] was 100%, the viability, T/C [8] was 99.5% and the viability, T/C [9] was 98.7%. It also gave a viability, T/C [10] of 115%, a viability, T/C [11] of 106% and a viability, T/C [12] of 109%. For the same molecule, the viability, T/C [13] was 96.9%, the viability, T/C [14] was 101% and the viability, T/C [15] was 107%. The viability, T/C [16] was 107%, the viability, T/C [17] was 110% and the viability, T/C [18] was 115%. For the same molecule, the viability, T/C [19] was 101%, the viability, T/C [20] was 107% and the viability, T/C [21] was 108%. For the same molecule, the viability, T/C [22] was 106%, the viability, T/C [23] was 108% and the viability, T/C [24] was 111%. It also gave a viability, T/C [25] of 108%, a viability, T/C [26] of 102% and a viability, T/C [27] of 115%. For the same molecule, the viability, T/C [28] was 105%, the viability, T/C [29] was 110% and the viability, T/C [30] was 110%. The viability, T/C [31] was 107%, the viability, T/C [32] was 111% and the viability, T/C [33] was 103%. The viability, T/C [34] was 118%, the viability, T/C [35] was 112% and the viability, T/C [36] was 108%. It also gave a viability, T/C [37] of 115%, a viability, T/C [38] of 102% and a viability, T/C [39] of 109%. For the same molecule, the viability, T/C [40] was 113%, the viability, T/C [41] was 111% and the viability, T/C [42] was 109%.
